From ChEMBL document CHEMBL4699579, “A Peptidyl Inhibitor that Blocks Calcineurin-NFAT Interaction and Prevents Acute Lung Injury” (J Med Chem, 2020)
pIC50, pKd: −log10 of the molar value. Calls of active or inactive are those of the source. The rule behind the calls is not given here.

Assays:
Mus musculus [1] = experiment: Anti-inflammatory activity in BALB/c mouse model of LPS-induced ALI assessed as reduction in number of neutrophils BALF at 10 mg/kg dosed via intranasal insuffIation pre-treated 2 hrs before LPS stimulation for 16 hrs; assay type: functional, organism-based; details: time 18.0 hrs
Mus musculus [2] = experiment: Anti-inflammatory activity in BALB/c mouse model of LPS-induced ALI assessed as reduction in LPS-induced extravasated BALF protein in BALF at 10 mg/kg dosed via intranasal insuffIation pre-treated 2 hrs before LPS stimulation for 16 hrs; assay type: functional, organism-based; details: time 18.0 hrs
Mus musculus [3] = experiment: Anti-inflammatory activity in BALB/c mouse model of LPS-induced ALI assessed as reduction in LPS-induced IL6 in BALF at 5 mg/kg dosed via intranasal insuffIation pre-treated 2 hrs before LPS stimulation for 16 hrs; assay type: functional, organism-based; details: dose mg/kg 5-10, time 18.0 hrs
NCI-H441 = experiment: Toxicity in human NCI-H441 cells assessed as reduction in cell viability up to 25 uM incubated for 72 hrs by MTT assay; assay type: cell-based; details: nci-h441, 72 h
Mus musculus [4] = experiment: Anti-inflammatory activity in BALB/c mouse model of LPS-induced ALI assessed as reduction in LPS-induced TNFalpha in plasma at 5 mg/kg dosed via intranasal insuffIation pre-treated 2 hrs before LPS stimulation for 16 hrs; assay type: functional, organism-based; details: dose mg/kg 5-10, time 18.0 hrs
Mus musculus [5] = experiment: Anti-inflammatory activity in BALB/c mouse model of LPS-induced ALI assessed as reduction in lung wet-to-dry ratios at 10 mg/kg dosed via intranasal insuffIation pre-treated 2 hrs before LPS stimulation for 16 hrs; assay type: functional, organism-based; details: time 18.0 hrs
[6] = Drug uptake in human HeLa cells at 5 uM incubated for 2 hrs using naphthofluorescein-labelled compound by live-cell confocal microscopic analysis; assay type: ADME, cell-based
Mus musculus [7] = experiment: Anti-inflammatory activity in BALB/c mouse model of LPS-induced ALI assessed as reduction in LPS-induced IL6 in plasma at 5 mg/kg dosed via intranasal insuffIation pre-treated 2 hrs before LPS stimulation for 16 hrs; assay type: functional, organism-based; details: dose mg/kg 5-10, time 18.0 hrs
Macrophage [8] = experiment: Inhibition of calcineurin-NFATc3 interaction in mouse lung macrophages assessed as reduction in LPS-induced IL6 production at 0.1 to 10 uM pre-incubated 4 hrs before LPS stimulation for 8 hrs by ELISA; assay type: tissue-based; details: dose microM 0.1-10, time 12.0 hrs
[9] = Stability in 25% human serum assessed as compound degradation at 5 uM at 37 degC incubated for 24 hrs by HPLC analysis; assay type: ADME, cell-free; details: 25% human serum, read-out: Drug degradation
Mus musculus [10] = experiment: Anti-inflammatory activity in BALB/c mouse model of LPS-induced ALI assessed as reduction in LPS-induced IL6 in BALF at 10 mg/kg dosed via intranasal insuffIation pre-treated 2 hrs before LPS stimulation for 16 hrs; assay type: functional, organism-based; details: time 18.0 hrs
[11] = Toxicity in C57BL/6 mouse assessed as effect on animal growth rates at 10 mg/kg dosed via intranasal insuffIation measured during 1 weeks; assay type: organism-based; details: in vivo, inhaled_or_intranasal, 168 h
[12] = Toxicity in C57BL/6 mouse assessed as induction of body weight loss at 50 mg/kg, ip measured during 1 weeks; assay type: organism-based; details: in vivo, 168 h
[13] = Tmax in BALF of C57BL/6 mouse at 5 mg/kg using TMR-labeled compound instilled into both nostrils by flow cytometry; assay type: ADME, organism-based, Bronchoalveolar lavage; details: inhaled or intranasal
HeLa = experiment: Toxicity in human HeLa cells assessed as reduction in cell viability up to 25 uM incubated for 72 hrs by MTT assay; assay type: cell-based
Mus musculus [14] = experiment: Anti-inflammatory activity in BALB/c mouse model of LPS-induced ALI assessed as reduction in LPS-induced extravasated BALF protein in BALF at 5 mg/kg dosed via intranasal insuffIation pre-treated 2 hrs before LPS stimulation for 16 hrs; assay type: functional, organism-based; details: dose mg/kg 5-10, time 18.0 hrs
[15] = Drug localization in total leukocytes of C57BL/6 mouse assessed as TMR-positive total leukocytes at 5 mg/kg using TMR-labeled compound instilled into both nostrils measured after 24 hrs by flow cytometry; assay type: ADME, organism-based, Leucocyte; details: in vivo, inhaled_or_intranasal
Macrophage [16] = experiment: Inhibition of calcineurin-NFATc3 interaction in mouse lung macrophages assessed as reduction in LPS-induced TNFalpha production at 0.1 to 10 uM pre-incubated 4 hrs before LPS stimulation for 8 hrs by ELISA; assay type: tissue-based; details: dose microM 0.1-10, time 12.0 hrs
[17] = Drug localization in plasma of C57BL/6 mouse at 5 mg/kg using TMR-labeled compound instilled into both nostrils measured after 24 hrs by flow cytometry; assay type: ADME, organism-based; details: in vivo, inhaled_or_intranasal
[18] = Solubility in PBS containing 5% DMSO at pH 7.4 incubated for 1 hr; assay type: physicochemical
[19] = Toxicity in mouse lung macrophages cells assessed as reduction in cell viability up to 25 uM incubated for 72 hrs by MTT assay; assay type: tissue-based; details: macrophage
Mus musculus [20] = experiment: Anti-inflammatory activity in BALB/c mouse model of LPS-induced ALI assessed as reduction in lung wet-to-dry ratios at 5 mg/kg dosed via intranasal insuffIation pre-treated 2 hrs before LPS stimulation for 16 hrs; assay type: functional, organism-based; details: dose mg/kg 5-10, time 18.0 hrs
[21] = Toxicity in C57BL/6 mouse assessed as effect on physical appearance at 50 mg/kg, ip; assay type: organism-based; details: in vivo
[22] = Toxicity in C57BL/6 mouse assessed as effect on body temperature at 50 mg/kg, ip; assay type: organism-based; details: in vivo
[23] = Drug localization in total leukocytes of C57BL/6 mouse assessed as TMR-positive total leukocytes at 5 mg/kg using TMR-labeled compound instilled into both nostrils measured after 4 hrs by flow cytometry; assay type: ADME, organism-based, Leucocyte; details: in vivo, inhaled_or_intranasal
Macrophage [24] = experiment: Inhibition of calcineurin-NFATc3 interaction in mouse bone marrow-derived macrophages assessed as reduction in LPS-induced NFATc3 nuclear translocation at 1 uM pre-incubated before LPS stimulation for 1 hr using biotinylated compound by immunofluorescence staining assay
Mus musculus [25] = experiment: Anti-inflammatory activity in BALB/c mouse model of LPS-induced ALI assessed as reduction in LPS-induced TNFalpha in BALF at 10 mg/kg dosed via intranasal insuffIation pre-treated 2 hrs before LPS stimulation for 16 hrs; assay type: functional, organism-based; details: time 18.0 hrs
[26] = (§1) Binding affinity to GST-tagged Calcineurin (unknown origin) assessed as reduction in binding of peptide-14 incubated for 1 hr by fluorescence polarization assay; set-up: species or system Homo sapiens
Homo sapiens = species on record: Homo sapiens; experiment: as §1
[27] = Toxicity in of C57BL/6 mouse assessed as induction of neutrophil infiltration at 5 mg/kg using TMR-labeled compound instilled into both nostrils measured after 24 hrs by Hema-3.0 staining based assay; assay type: organism-based; details: in vivo, inhaled_or_intranasal
Mus musculus [28] = experiment: Anti-inflammatory activity in BALB/c mouse model of LPS-induced ALI assessed as reduction in LPS-induced TNFalpha in BALF at 5 mg/kg dosed via intranasal insuffIation pre-treated 2 hrs before LPS stimulation for 16 hrs; assay type: functional, organism-based; details: dose mg/kg 5-10, time 18.0 hrs
Mus musculus [29] = experiment: Anti-inflammatory activity in BALB/c mouse model of LPS-induced ALI assessed as reduction in number of neutrophils BALF at 5 mg/kg dosed via intranasal insuffIation pre-treated 2 hrs before LPS stimulation for 16 hrs; assay type: functional, organism-based; details: dose mg/kg 5-10, time 18.0 hrs
[30] = Toxicity in C57BL/6 mouse assessed as effect on respiratory function measured by pulmonary arterial oxygen saturation at 50 mg/kg, ip; assay type: organism-based; details: in vivo
[31] = Toxicity in C57BL/6 mouse assessed as efect on animal growth rates at 50 mg/kg, ip measured during 1 weeks; assay type: organism-based; details: in vivo, 168 h
Mus musculus [32] = experiment: Anti-inflammatory activity in BALB/c mouse model of LPS-induced ALI assessed as reduction in LPS-induced TNFalpha in plasma at 10 mg/kg dosed via intranasal insuffIation pre-treated 2 hrs before LPS stimulation for 16 hrs; assay type: functional, organism-based; details: time 18.0 hrs
[33] = Binding affinity to GST-tagged Calcineurin (unknown origin) incubated for 1 hr by fluorescence polarization assay; set-up: species or system Homo sapiens
[34] = Toxicity in C57BL/6 mouse assessed as effect on self grooming at 50 mg/kg, ip; assay type: organism-based; details: in vivo
[35] = Toxicity in of C57BL/6 mouse assessed as effect on lactate dehydrogenase level in total lung cells at 5 mg/kg using TMR-labeled compound instilled into both nostrils measured after 24 hrs by Cyto-tox 96 assay; assay type: organism-based; details: in vivo, inhaled_or_intranasal
[36] = Toxicity in C57BL/6 mouse assessed as induction of body weight loss at 10 mg/kg dosed via intranasal insuffIation measured during 1 weeks; assay type: organism-based; details: in vivo, inhaled_or_intranasal, 168 h

- Drug uptake [6]: Active
- metabolised at 24 h, 5 µM [9]: < 10%
- Tmax [13]: 2 h
- Drug uptake [15]: Not Active
- Drug uptake [17]: Not Active
- solubility kinetic at 1 h [18]: ≥ 100 µM
- Drug uptake [23]: 80%
- pIC50 [26]: 6.20
- inhibition (Homo sapiens): Dose-dependent effect
- pKd [33]: 7.12
Structure (SMILES): CC[C@H](C)[C@H](NC(=O)[C@@H](NC(=O)c1cccc(Cl)c1Cl)C(C)(C)C)C(=O)N[C@H](C(=O)N[C@H](C(=O)N[C@H](C(=O)N[C@@H](CCC(N)=O)C(=O)N[C@@H](Cc1cnc[nH]1)C(=O)N[C@@H](CC(C)C)C(=O)N[C@@H](CO)C(=O)NCCC(=O)N[C@@H](CCCCNC(=O)CC[C@@H]1NC(=O)[C@@H](CCCNC(=N)N)NC(=O)[C@H](CCCNC(=N)N)NC(=O)[C@@H](CCCNC(=N)N)NC(=O)[C@H](CCCNC(=N)N)NC(=O)[C@H](Cc2ccc3ccccc3c2)NC(=O)[C@@H](Cc2ccccc2)NC1=O)C(N)=O)[C@H](C)O)[C@@H](C)CC)C(C)(C)C
- Activity (Mus musculus [1]): Active
- Activity (Mus musculus [2]): Active
- Activity (Mus musculus [3]): inactive
- Activity (NCI-H441): Non-Toxic
- Activity (Mus musculus [4]): inactive
- Activity (Mus musculus [5]): Active
- Activity (Mus musculus [7]): inactive
- inhibition (Macrophage [8]; DISRUPTING AGENT): Dose-dependent effect
- inhibition (Macrophage [8]): 22%
- Activity (Mus musculus [10]): Active
- Activity [11]: Non-Toxic
- Activity [12]: Non-Toxic
- Activity (HeLa): Non-Toxic
- Activity (Mus musculus [14]): inactive
- inhibition (Macrophage [16]; DISRUPTING AGENT): Dose-dependent effect
- inhibition (Macrophage [16]): 17%
- Activity [19]: Non-Toxic
- Activity (Mus musculus [20]): inactive
- Activity [21]: Non-Toxic
- Activity [22]: Non-Toxic
- inhibition (Macrophage [24]): Active
- Activity (Mus musculus [25]): Active
- Activity [27]: Non-Toxic
- Activity (Mus musculus [28]): inactive
- Activity (Mus musculus [29]): inactive
- Activity [30]: Non-Toxic
- Activity [31]: Non-Toxic
- Activity (Mus musculus [32]): Active
- Activity [34]: Non-Toxic
- Activity [35]: Non-Toxic
- Activity [36]: Non-Toxic
